Patent publication US20220388979A1, “QUINOLINE DERIVATIVES AS PROTEIN KINASE INHIBITORS” (B.C.I. PHARMA, priority 2019, published 2022)

Tests used:
Conditions in all cases: at 50 nM, in duplicate
PDGFRB = PDGFRB (Homo sapiens, UniProt P09619); assay: Z'-Lyte biochemical kinase assay (SelectScreen), PDGFRB
Protocol: (§1) A biochemical assay was performed in order to measure the protein kinase inhibition. The kinase binding assays were performed against different kinases using the SelectScreen Biochemical Kinase Profiling Service® platform (Thermo Fisher Scientific). For all kinases, the Z′-Lyte® biochemical kinase assay technology was used. Inhibitions were measured at 50 nM in duplicate for each compound and are reported in percentage.

PDGFRA = PDGFRA (Homo sapiens, UniProt P16234); assay: Z'-Lyte biochemical kinase assay (SelectScreen), PDGFRA
PDGFRA, sequence (P16234 24-1089): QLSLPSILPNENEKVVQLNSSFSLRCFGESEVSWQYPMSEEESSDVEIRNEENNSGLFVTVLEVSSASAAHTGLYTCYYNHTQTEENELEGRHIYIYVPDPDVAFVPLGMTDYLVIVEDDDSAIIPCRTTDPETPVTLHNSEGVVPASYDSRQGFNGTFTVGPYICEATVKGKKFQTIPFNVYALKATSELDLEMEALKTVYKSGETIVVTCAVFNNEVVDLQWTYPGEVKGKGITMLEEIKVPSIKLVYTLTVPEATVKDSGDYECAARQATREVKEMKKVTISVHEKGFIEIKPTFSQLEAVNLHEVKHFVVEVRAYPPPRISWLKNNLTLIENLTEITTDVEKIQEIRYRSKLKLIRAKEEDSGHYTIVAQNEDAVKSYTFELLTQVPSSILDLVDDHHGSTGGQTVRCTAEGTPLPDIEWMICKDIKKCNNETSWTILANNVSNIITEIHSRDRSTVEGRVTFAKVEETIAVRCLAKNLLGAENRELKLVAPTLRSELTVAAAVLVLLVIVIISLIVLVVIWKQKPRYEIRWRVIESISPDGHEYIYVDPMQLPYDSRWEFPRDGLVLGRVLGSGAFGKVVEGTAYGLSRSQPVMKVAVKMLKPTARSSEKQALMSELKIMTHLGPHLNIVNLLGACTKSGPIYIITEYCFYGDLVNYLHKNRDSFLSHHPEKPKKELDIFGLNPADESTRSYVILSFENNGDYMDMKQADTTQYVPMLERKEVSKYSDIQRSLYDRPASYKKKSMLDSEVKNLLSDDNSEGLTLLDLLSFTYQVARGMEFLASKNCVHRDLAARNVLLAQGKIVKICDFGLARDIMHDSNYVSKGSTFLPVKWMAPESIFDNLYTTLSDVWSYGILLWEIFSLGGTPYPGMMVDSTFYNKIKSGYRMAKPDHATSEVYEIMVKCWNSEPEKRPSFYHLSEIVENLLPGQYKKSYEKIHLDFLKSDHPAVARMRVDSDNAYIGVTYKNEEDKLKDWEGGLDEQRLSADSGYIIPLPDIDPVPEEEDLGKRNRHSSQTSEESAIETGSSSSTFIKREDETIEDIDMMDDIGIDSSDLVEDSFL
Protocol: as §1

CSF1R = CSF1R (Homo sapiens, UniProt P07333); assay: Z'-Lyte biochemical kinase assay (SelectScreen), CSF1R
CSF1R, sequence (P07333 20-972): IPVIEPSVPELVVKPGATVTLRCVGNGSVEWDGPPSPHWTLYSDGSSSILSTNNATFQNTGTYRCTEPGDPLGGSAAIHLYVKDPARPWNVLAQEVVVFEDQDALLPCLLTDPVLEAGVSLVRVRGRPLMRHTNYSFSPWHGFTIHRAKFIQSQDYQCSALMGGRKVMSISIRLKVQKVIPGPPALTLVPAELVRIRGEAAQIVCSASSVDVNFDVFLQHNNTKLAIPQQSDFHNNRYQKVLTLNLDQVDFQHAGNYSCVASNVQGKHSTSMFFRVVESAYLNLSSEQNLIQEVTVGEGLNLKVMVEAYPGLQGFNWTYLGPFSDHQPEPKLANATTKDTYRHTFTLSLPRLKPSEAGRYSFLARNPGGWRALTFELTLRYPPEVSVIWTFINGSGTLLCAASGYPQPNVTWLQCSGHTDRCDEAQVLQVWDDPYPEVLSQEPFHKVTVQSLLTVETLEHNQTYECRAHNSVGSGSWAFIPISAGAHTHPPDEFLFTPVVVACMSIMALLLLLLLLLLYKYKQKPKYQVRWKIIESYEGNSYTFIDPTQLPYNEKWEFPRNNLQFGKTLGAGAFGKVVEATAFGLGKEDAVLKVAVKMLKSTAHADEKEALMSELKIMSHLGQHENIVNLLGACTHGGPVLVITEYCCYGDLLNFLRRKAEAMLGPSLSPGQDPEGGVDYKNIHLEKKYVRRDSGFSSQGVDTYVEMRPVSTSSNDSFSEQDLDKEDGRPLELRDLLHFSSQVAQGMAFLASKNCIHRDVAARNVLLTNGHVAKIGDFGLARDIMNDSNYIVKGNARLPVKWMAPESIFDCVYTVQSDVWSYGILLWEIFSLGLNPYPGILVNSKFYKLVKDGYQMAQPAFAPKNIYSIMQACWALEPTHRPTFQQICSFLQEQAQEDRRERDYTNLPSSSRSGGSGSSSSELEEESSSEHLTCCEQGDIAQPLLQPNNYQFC
Protocol: as §1

FLT3 = target: T1, FLT3 (Homo sapiens, UniProt P36888); assay: Z'-Lyte biochemical kinase assay (SelectScreen), FLT3
T1 sequence (P36888 27-993): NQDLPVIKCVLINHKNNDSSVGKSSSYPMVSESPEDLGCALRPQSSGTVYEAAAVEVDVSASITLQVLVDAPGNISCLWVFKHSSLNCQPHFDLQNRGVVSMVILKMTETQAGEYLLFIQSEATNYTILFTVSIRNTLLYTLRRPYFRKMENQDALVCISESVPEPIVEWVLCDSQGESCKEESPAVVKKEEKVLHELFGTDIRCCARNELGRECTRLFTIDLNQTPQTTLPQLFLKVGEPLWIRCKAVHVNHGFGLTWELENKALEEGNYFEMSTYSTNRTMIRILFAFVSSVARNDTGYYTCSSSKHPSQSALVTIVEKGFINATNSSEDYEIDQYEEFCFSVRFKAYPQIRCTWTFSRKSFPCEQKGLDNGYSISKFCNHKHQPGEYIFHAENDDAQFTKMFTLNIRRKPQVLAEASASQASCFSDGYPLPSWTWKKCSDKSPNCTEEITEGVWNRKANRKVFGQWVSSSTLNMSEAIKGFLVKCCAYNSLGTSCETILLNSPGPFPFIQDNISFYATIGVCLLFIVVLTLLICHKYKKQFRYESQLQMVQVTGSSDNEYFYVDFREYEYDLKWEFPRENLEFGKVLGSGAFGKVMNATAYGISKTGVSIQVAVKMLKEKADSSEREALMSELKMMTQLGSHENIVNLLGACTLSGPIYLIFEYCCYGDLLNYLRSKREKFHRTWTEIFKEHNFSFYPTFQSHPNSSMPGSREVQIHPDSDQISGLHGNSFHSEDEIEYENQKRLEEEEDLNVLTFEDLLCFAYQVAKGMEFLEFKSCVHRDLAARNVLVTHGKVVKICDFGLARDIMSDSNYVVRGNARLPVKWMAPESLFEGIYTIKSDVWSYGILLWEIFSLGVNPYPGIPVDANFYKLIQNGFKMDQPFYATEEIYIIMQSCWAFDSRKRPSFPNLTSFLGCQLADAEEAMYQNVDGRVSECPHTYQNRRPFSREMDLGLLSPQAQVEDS
Protocol: as §1

Kit = Kit (Homo sapiens, UniProt P10721); assay: Z'-Lyte biochemical kinase assay (SelectScreen), Kit
Kit, sequence (P10721 26-976): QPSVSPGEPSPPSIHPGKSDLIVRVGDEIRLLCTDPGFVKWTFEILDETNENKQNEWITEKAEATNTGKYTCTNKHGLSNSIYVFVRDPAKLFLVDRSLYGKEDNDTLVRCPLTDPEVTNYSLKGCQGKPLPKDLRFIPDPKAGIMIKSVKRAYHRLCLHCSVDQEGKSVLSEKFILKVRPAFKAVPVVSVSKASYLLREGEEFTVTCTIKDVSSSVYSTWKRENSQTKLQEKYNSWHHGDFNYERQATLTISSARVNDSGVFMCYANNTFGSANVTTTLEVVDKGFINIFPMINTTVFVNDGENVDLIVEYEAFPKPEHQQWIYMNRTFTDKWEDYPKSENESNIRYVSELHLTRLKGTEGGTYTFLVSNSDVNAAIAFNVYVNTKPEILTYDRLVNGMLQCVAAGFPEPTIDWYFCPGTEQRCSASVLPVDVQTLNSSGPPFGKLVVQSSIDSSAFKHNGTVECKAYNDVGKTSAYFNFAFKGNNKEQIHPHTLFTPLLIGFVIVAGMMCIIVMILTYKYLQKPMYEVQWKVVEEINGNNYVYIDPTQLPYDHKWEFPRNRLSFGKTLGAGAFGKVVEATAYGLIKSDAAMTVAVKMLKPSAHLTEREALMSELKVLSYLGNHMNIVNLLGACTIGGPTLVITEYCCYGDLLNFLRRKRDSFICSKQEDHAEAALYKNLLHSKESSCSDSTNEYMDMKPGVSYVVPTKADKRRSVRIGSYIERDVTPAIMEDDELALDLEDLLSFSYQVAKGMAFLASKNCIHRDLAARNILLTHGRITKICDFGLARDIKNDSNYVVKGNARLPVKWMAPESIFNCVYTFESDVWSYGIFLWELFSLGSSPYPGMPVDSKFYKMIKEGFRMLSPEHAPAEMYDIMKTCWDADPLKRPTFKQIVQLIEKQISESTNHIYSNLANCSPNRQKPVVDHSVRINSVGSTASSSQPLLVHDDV
Protocol: as §1

PDGFRB, sequence (P09619 33-1106): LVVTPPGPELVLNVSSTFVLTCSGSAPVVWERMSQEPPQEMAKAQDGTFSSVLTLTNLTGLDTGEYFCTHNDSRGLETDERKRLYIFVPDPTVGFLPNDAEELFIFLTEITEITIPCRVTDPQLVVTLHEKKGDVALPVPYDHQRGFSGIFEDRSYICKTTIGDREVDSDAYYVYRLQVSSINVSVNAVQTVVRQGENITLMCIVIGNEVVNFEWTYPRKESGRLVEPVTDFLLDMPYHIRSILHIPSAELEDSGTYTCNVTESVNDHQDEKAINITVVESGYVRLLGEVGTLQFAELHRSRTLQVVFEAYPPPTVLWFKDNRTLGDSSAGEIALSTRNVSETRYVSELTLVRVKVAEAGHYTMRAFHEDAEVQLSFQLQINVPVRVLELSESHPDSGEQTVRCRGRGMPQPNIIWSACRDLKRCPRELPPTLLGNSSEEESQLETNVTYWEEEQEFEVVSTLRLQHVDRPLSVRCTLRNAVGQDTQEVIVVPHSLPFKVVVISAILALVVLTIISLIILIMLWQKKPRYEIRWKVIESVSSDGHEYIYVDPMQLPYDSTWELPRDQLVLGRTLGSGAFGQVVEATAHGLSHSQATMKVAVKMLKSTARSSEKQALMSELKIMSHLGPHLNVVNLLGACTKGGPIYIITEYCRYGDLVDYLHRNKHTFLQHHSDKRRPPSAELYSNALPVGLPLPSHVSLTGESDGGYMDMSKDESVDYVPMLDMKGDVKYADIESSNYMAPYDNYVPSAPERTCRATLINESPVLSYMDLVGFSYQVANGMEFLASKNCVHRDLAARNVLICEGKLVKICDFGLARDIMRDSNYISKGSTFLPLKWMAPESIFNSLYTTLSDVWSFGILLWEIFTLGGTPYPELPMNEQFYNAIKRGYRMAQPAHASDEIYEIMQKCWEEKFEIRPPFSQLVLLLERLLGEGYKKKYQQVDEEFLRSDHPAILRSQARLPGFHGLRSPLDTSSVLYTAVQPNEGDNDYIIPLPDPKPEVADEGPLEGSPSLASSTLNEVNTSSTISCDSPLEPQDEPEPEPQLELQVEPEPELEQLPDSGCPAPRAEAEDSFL

Row | Structure (SMILES) | inhibition at 0.05 µM (PDGFRB) [%] | inhibition at 0.05 µM (PDGFRA) [%] | inhibition at 0.05 µM (CSF1R) [%] | inhibition at 0.05 µM (FLT3) [%] | inhibition at 0.05 µM (Kit) [%]
1 | COc1ccc2c(Oc3cccc(C(=O)NCc4ccncc4)c3C)ccnc2c1 [Compounds 32] | 6 | 2 | 96 | 8 | 2
2 | Cc1c(Oc2ccnc3cc(Cl)ccc23)cccc1C(=O)NCc1ccncc1 [Compounds 108] | 13 | 11 | 88 | 6 | 10
3 | O=C(NCC1CCCCC1)c1cccc(Oc2ccnc3ccccc23)c1 [compound 3] | 27 | 18 | 71 | 6 | 7
4 | COc1ccccc1CNC(=O)c1cccc(Oc2ccnc3ccccc23)c1 [compound 7] | 22 | 16 | 85 | 14 | 20
5 | O=C(NCc1cccc(F)c1)c1cccc(Oc2ccnc3ccccc23)c1 [compound 10] | 24 | 17 | 71 | 18 | 11
6 | O=C(NCc1ccc(F)cc1)c1cccc(Oc2ccnc3ccccc23)c1 [compound 16] | 24 | 23 | 81 | 7 | 15
7 | O=C(NCc1cncc(F)c1)c1cccc(Oc2ccnc3ccccc23)c1 [compound 17] | 12 | 15 | 83 | -4 | 14
8 | COc1cc2nccc(Oc3cccc(C(=O)N[C@H](C)c4ccccc4)c3)c2cc1OC [compound 24] | 34 | 24 | 97 | 44 | 29
9 | COc1cc2nccc(Oc3cccc(C(=O)NCCc4ccccc4)c3)c2cc1OC [compound 25] | 39 | 27 | 95 | 48 | 32
10 | COc1ccccc1CNC(=O)c1cccc(Oc2ccnc3cc(OC)c(OC)cc23)c1 [compound 26] | 50 | 35 | 102 | 47 | 32
11 | COc1cc2nccc(Oc3cccc(C(=O)NCC4CCCCC4)c3)c2cc1OC [compound 27] | 44 | 23 | 93 | 39 | 26
12 | COc1cc2nccc(Oc3cccc(C(=O)NCc4cncc(F)c4)c3)c2cc1OC [compound 29] | 28 | 21 | 93 | 2 | 17
13 | Cc1c(Oc2ccnc3ccccc23)cccc1C(=O)NCc1ccc(C#N)cc1 [compound 30] | 11 | 8 | 72 | 10 | 8
14 | COc1ccc2c(Oc3cccc(C(=O)NCc4cccc(F)c4)c3C)ccnc2c1 [compound 33] | 14 | 10 | 78 | 16 | 4
15 | O=C(NCc1cccnc1)c1cccc(Oc2ccnc3ccccc23)c1 [compound 74] | 12 | 7 | 83 | 25 | 20
16 | O=C(NCc1ccncc1)c1cccc(Oc2ccnc3ccccc23)c1 [compound 75] | 10 | -1 | 79 | 16 | 20
17 | COc1cc2nccc(Oc3cccc(C(=O)NCc4ccccc4)c3)c2cc1OC [compound 84] | 54 | 16 | 91 | 37 | 34
18 | COc1ccc2c(Oc3cccc(C(=O)NCc4ccccc4)c3)ccnc2c1 [compound 85] | 28 | 22 | 85 | 26 | 31
19 | COc1ccc2c(Oc3cc(F)cc(C(=O)NCc4ccccc4OC)c3)ccnc2c1 [compound 88] | 53 | 31 | 85 | 29 | 30
20 | COc1ccccc1CNC(=O)c1cc(F)cc(Oc2ccnc3cc(OC)c(OC)cc23)c1 [compound 89] | 48 | 49 | 86 | 36 | 21
21 | COc1cc2nccc(Oc3cc(F)cc(C(=O)N[C@H](C)C4CCCCC4)c3)c2cc1OC [compound 90] | 28 | 28 | 77 | 26 | 9
22 | COc1ccccc1CNC(=O)c1ccc(F)c(Oc2ccnc3cc(OC)c(OC)cc23)c1 [compound 92] | 60 | 24 | 94 | 50 | 13
23 | COc1cc2nccc(Oc3cc(C(=O)N[C@H](C)C4CCCCC4)ccc3F)c2cc1OC [compound 93] | 24 | 23 | 82 | 3 | 2

More lines, now with the values ahead:

Row | inhibition at 0.05 µM (PDGFRB) [%] | inhibition at 0.05 µM (PDGFRA) [%] | inhibition at 0.05 µM (CSF1R) [%] | inhibition at 0.05 µM (FLT3) [%] | inhibition at 0.05 µM (Kit) [%] | Structure (SMILES)
24 | 45 | 30 | 93 | 27 | 32 | COc1cc2nccc(Oc3cc(C(=O)NCc4cccc(F)c4)ccc3F)c2cc1OC [compound 94]
25 | 23 | 6 | 79 | 6 | 5 | COc1ccc2c(Oc3cc(C(=O)NCc4ccncc4)ccc3F)ccnc2c1 [compound 98]
26 | 20 | 17 | 75 | 26 | 0 | COc1ccccc1CNC(=O)c1ccc(F)c(Oc2ccnc3ccccc23)c1 [compound 99]
27 | 40 | 25 | 81 | 37 | 27 | O=C(NCc1cccc(F)c1)c1ccc(F)c(Oc2ccnc3ccccc23)c1 [compound 101]
28 | 13 | -5 | 73 | 8 | 7 | Cc1c(Oc2ccnc3ccccc23)cccc1C(=O)NCc1cccc(F)c1 [compound 103]
29 | 25 | 22 | 85 | 19 | 11 | COc1cc2nccc(Oc3cccc(C(=O)NCc4cccc(F)c4)c3C)c2cc1OC [compound 107]
30 | 19 | 11 | 83 | 8 | 3 | CN(C)c1ccc2c(Oc3cccc(C(=O)NCc4ccncc4)c3)ccnc2c1 [compound 140]
31 | 9 | 11 | 61 | 9 | 13 | CNc1ccc2c(Oc3cc(C(=O)NCc4ccncc4)ccc3F)ccnc2c1 [compound 142]
32 | 32 | 14 | 77 | 3 | 8 | CN(C)c1ccc2c(Oc3cc(C(=O)NCc4ccncc4)ccc3F)ccnc2c1 [compound 143]
33 | 12 | 4 | 75 | 7 | 0 | CNc1ccc2c(Oc3cccc(C(=O)NCc4ccncc4)c3C)ccnc2c1 [compound 148]
